Legend:
hERG (KV11.1) = hERG (KV11.1) (Homo sapiens, UniProt Q12809); experiment: automated patch clamp; assay type: cell-based
hSK3 (KCa2.3) = hSK3 (KCa2.3) (Homo sapiens, UniProt Q9UGI6); experiment: automated whole-cell patch clamp; assay type: cell-based
Chain of hSK3 (KCa2.3) (Q9UGI6 whole entry): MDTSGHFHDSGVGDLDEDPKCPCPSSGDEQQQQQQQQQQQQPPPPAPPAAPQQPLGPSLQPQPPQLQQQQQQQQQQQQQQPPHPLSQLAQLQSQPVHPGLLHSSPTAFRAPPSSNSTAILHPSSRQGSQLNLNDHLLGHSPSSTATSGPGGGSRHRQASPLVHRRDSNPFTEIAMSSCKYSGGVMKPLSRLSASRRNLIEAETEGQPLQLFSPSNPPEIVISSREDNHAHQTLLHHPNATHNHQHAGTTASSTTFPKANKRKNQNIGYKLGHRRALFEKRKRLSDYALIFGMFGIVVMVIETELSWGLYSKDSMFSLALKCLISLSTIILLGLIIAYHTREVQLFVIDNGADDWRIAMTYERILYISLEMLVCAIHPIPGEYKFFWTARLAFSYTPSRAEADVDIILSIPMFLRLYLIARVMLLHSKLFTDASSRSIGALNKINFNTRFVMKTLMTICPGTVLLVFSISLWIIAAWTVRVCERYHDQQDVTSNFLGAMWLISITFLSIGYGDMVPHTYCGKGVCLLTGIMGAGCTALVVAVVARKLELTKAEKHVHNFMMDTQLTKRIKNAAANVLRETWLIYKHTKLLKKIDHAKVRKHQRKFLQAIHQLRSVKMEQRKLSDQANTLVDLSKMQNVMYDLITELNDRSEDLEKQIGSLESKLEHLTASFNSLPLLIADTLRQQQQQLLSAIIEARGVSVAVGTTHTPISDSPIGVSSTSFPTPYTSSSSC

Chain of hERG (KV11.1) (Q12809 whole entry): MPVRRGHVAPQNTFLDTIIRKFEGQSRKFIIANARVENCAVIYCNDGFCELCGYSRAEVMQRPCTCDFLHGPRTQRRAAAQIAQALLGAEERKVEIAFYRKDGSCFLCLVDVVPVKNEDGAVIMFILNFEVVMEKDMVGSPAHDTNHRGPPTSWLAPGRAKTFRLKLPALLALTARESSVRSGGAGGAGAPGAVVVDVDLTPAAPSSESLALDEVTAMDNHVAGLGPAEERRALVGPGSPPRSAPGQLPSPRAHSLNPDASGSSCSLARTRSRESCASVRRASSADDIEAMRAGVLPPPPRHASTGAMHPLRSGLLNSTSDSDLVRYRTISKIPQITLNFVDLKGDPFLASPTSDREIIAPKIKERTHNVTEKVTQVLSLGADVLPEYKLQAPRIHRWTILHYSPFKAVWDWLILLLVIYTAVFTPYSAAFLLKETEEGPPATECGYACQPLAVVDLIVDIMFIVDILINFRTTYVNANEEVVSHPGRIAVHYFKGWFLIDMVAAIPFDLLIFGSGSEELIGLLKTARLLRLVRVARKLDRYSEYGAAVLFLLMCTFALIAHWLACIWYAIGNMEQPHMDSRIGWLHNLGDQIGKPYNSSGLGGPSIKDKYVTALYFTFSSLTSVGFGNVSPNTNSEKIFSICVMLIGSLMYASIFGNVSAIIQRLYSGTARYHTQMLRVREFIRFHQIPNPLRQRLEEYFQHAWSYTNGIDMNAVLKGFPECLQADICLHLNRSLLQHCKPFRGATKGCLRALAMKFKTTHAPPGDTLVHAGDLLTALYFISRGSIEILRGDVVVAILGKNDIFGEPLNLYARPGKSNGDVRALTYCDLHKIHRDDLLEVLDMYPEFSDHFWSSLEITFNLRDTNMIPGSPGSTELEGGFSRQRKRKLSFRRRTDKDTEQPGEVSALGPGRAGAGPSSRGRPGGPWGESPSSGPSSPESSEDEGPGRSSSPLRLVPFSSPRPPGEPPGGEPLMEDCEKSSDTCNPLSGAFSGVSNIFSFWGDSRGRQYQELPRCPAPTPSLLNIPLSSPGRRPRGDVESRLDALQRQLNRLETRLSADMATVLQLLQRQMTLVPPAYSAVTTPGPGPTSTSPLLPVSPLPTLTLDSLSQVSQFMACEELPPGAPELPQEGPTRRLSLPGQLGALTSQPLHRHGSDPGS

- IC50 (hSK3 (KCa2.3)): 1.3 ± 0.4 µM
Structure (SMILES): CC(=O)Nc1cccc2[nH]c(N[C@H](C)c3cccc(C(F)(F)F)c3)nc12 [AP14145, N-(2-{[(1R)-1-[3-(trifluoromethyl)phenyl]ethyl]amino}-1H-1,3-benzodiazol-4-yl)acetamide]
- IC50 (hERG (KV11.1)): 71.8 ± 0.5 µM

— article PMC5647113 (Circulation. Arrhythmia and electrophysiology, 2017)
